Data published in US7252953B2, “Method of detecting and preventing Alzheimer's disease, particularly at prodromal and early stages” (United States of America Department of Veterans Affairs, priority 2002, dated 2007).
Entries after “also recorded” stand apart in the source; their conditions may differ.

Assays:
[1] = tested on: fibrillar actin (F-actin); assay: Phalloidin staining of F-actin in microglial cells; format: cell-based, murine
Method: Microglial cells were seeded onto poly-L-lysine-coated 8-chamber slides at a density of 1×10^4/well. After various treatments, cells were immediately fixed with pre-chilled (4° C.) 5% acetic acid in methanol for 45 min at 4° C., followed by washing with PBS. The fixed cells were blocked and double-stained with phalloidin-FITC (1:1,000) and anti-GRK5 (1:500) or GRK2 (1:500). Secondary antibody-Cy3 conjugates (1:500) staining, washing, mounting and confocal microscopic visualization were performed routinely as previously described (Reference 29).
Microglial-mediated inflammation is an important pathological component of AD (Reference 28). […] Thrombin, a serine protease is known to activate protease-activated GPCRs, (PARs) such as PAR1 (Reference 29) and PAR4 in microglia. The sAβ preparation used in this study has been previously characterized as composed principally of conformational intermediates by CD-spectrum (Reference 30) and a mixture of monomeric and oligomeric Aβ by Western blotting.

[2] = tested on: PARs-GRKs binding; assay: Inhibition of GRK-PAR binding by sAβ-pretreatment in microglial cells (IP and WB, all examined PARs and GRKs); format: cell-based, murine; conditions: sAβ1-42 500 nM pretreatment 5 min, then 100 nM thrombin 30 seconds
Method: Primary microglial cultures were prepared from neonatal mouse (C57BL6) brains as previously described (Reference 29) and maintained in Delbecco's modified Eagle's medium with F-12 nutrient mixture (DMEM/F12) containing 10% fetal bovine sera (FBS) and antibiotics. N9 clonal murine microglial cell cultures were maintained in Iscoves modified Delbecco's medium (IMDM) containing 5% heat-inactivated FBS, 2 mM L-glutamine, 50 μM 2-mercaptoethanol and antibiotics. Treatment of both primary and N9 microglial cells were performed under serum-free conditions. Freshly solublized Aβ (BioSource, Camarillo, Calif.) peptides were prepared and characterized as previously described (References 30 and 44) and were used in all in vitro experiments. […]
Cultured cells were lysed in pre-chilled 2×IP buffer I (Tris, 20 mM, pH 7.4; NaCl, 300 mM; EDTA, 2 mM; 2 mM EGTA, pH 8.0; 0.4 mM sodium ortho-vanadate, 2% Triton X-100; 1% NP-40; 0.4 mM PMSF) supplemented both with phosphatase and protease inhibitor cocktails. After centrifugation, the supernatants were collected and total protein concentrations were determined by the bicinchoninic acid assay (BCA). […] Both antibodies to GRK2 and GRK5 (Santa Cruz) were diluted 1:500 for WB, other routine procedures, WB for total and phospho-p44/42 MAPK, and semi-quantitative analysis of protein band density were performed as previously described (Reference 29). […]

[3] = tested on: [Ca^2+]i; assay: Ca2+ imaging (Fluo-4) in microglial cells; format: cell-based, murine; conditions: sAβ-pretreated cells (500 nM sAβ1-42), then 100 nM thrombin
Method: (§1) Primary microglial cultures were prepared from neonatal mouse (C57BL6) brains as previously described (Reference 29) and maintained in Delbecco's modified Eagle's medium with F-12 nutrient mixture (DMEM/F12) containing 10% fetal bovine sera (FBS) and antibiotics. N9 clonal murine microglial cell cultures were maintained in Iscoves modified Delbecco's medium (IMDM) containing 5% heat-inactivated FBS, 2 mM L-glutamine, 50 μM 2-mercaptoethanol and antibiotics. Treatment of both primary and N9 microglial cells were performed under serum-free conditions. Freshly solublized Aβ (BioSource, Camarillo, Calif.) peptides were prepared and characterized as previously described (References 30 and 44) and were used in all in vitro experiments. Unless specified, cells were always pretreated with sAβ for 5 min and then followed by challenge with α-thrombin (100 nM or as indicated), glutamate (2 mM) or LPS (5 ng/ml).
We measured [Ca^2+]i in microglial cells using Fluo-4 (2 μM) with the aid of a Nikon BioRadiance triple laser scanning confocal microscope. Image collection, quantification and data analysis were performed as previously described (Reference 29).
(§2) In previous studies, we found thrombin signaling via PARs in microglial cells involving [Ca^2+]i increase and transient activation of both p38 and p44/42 mitogen-activated protein kinases (MAPKs) (Reference 29). To understand potential consequences of GRK dysfunction induced by sAβ, for these studies we also assessed changes in thrombin signaling in sAβ-pretreated microglial cells.
(§3) FIG. 5A, N9 microglial cells were pre-treated with 500 nM sAβ1-42 (arrow “1”) followed by 100 nM thrombin treatment (arrow “2”). Changes in [Ca^2+]i were measured as previously described (Reference 29) from three separate experiments. […] For both FIGS. 5B and 5C, lane M=Marker, 1=Control (0 min), 2=Control (25 min), 3=Aβ1-42 (25 min), 4=Thrombin (20 min), 5=Aβ1-42+thrombin (20 min post-Aβ), 6=Control (24 h), 7=Aβ1-42 (24 h), 8=Thrombin (24 h) and 9=Aβ1-42+thrombin (24 h post-Aβ). “P” and “T” indicate phosphorylated and total p38 or p44/42 MAPKs, respectively.

[4] = tested on: p44/42 MAPK; assay: p44/42 MAPK phosphorylation in microglial cells (WB); format: cell-based, murine
Method: as §1
(§4) Cultured cells were lysed in pre-chilled 2×IP buffer I (Tris, 20 mM, pH 7.4; NaCl, 300 mM; EDTA, 2 mM; 2 mM EGTA, pH 8.0; 0.4 mM sodium ortho-vanadate, 2% Triton X-100; 1% NP-40; 0.4 mM PMSF) supplemented both with phosphatase and protease inhibitor cocktails. After centrifugation, the supernatants were collected and total protein concentrations were determined by the bicinchoninic acid assay (BCA). Equal amounts (250 μg) of cell lysates from each group were mixed with 20 μl (˜5 μg) of either PAR1 or PAR4 antibodies, and brought to a total volume of 1 ml in 1×IP buffer. Following a 1 hour incubation at 4° C., appropriate secondary antibody-agarose conjugates were added followed by incubation (30 min with agitation), centrifugation and sufficient washes. The pellets were resuspended in 30 μl of electrophoresis sample buffer and boiled for 5 min. The supernatants were directly used for polyacrylamide sodium dodecyl sulfate gel electrophoresis (SDS-PAGE) and WB analysis. To prepare subcellular fractions of brain samples, we homogenized fresh or fresh-frozen tissues in Tris buffered saline solution (Tris, 10 mM, pH 7.4; NaCl, 150 mM; EDTA, 1 mM; 1 mM EGTA, pH 8.0; 0.2 mM sodium ortho-vanadate) supplemented with protease inhibitor cocktails. After centrifugation (12,000 g at 4° C. for 15 min), the supernatants were collected as cytosolic fractions. The pellets were resuspended in 1×IP buffer containing protease inhibitor cocktail. Following brief sonication and centrifugation (12,000 g at 4° C. for 15 min), the supernatants were collected as membrane fractions. Both antibodies to GRK2 and GRK5 (Santa Cruz) were diluted 1:500 for WB, other routine procedures, WB for total and phospho-p44/42 MAPK, and semi-quantitative analysis of protein band density were performed as previously described (Reference 29).
as §2, §3

[5] = tested on: p38 MAPK; assay: p38 MAPK phosphorylation in microglial cells (WB); format: cell-based, murine
Method: as §1, §4, §2, §3

[6] = tested on: TNF-α; assay: TNF-α release in primary mouse brain microglial cultures; format: cell-based
Method: as §1
(§5) TNF-α production in microglial culture media was measured and standardized as previously described (Reference 29).
(§6) Given our results that sAβ disrupts GRK function and inhibits GPCR desensitization in microglia, we next investigated whether such signaling dysregulation might lead to cellular functional changes in microglia. Both primary and N9 clonal murine microglial cultures were used and TNF-α secretion in culture media was measured as an outcome. […] Moreover, the potentiation effect of sAβ on thrombin and glutamate-induced microglial activation was dose-dependent, with a minimal effective concentration (ECmin) of 20 nM and a maximal EC (ECmax) of 500 nM. Furthermore, the enhancement effect was not observed if sAβ was given after (10 min) thrombin or glutamate treatments. […] Together with the evidence that sAβ inhibits GRK-GPCR interactions and causes prolongation of GPCR signaling, we conclude that sAβ, by disrupting GRK function, alters microglial reactivity to specific GPCR activators.
FIG. 6A, pretreatment with sAβ1-42 potentiated (p<0.01) TNF-α release induced by increasing doses of thrombin (Thr) as indicated from primary mouse brain microglial cultures. n=4. […]

[7] = tested on: TNF-α; assay: TNF-α release in N9 clonal murine microglial cells; format: cell-based
Method: as §1, §5, §6
FIG. 6A, pretreatment with sAβ1-42 potentiated (p<0.01) TNF-α release induced by increasing doses of thrombin (Thr) as indicated from primary mouse brain microglial cultures. n=4. […] The ECmin and ECmax for sAβ's potentiation are approximately 20 nM and 500 nM, respectively. n=6.

[8] = sAβ pretreatment (5 min) followed by thrombin, within 20 min post-Aβ treatment
[9] = sAβ-pretreatment followed by thrombin, 24 h
[10] = substance alone, within 20 min post-Aβ treatment
[11] = 5 min pretreatment, N9 cells, FIG. 6B

## sAβ: Soluble β-amyloid, chain length not stated at the place; sAβ1-42 (500 nM) in Examples 3-6
[1]
  formation of fibrillar actin (F-actin): caused rapid formation of fibrillar actin (F-actin)
[2]
  binding of all examined PARs to GRKs after thrombin in sAβ-pretreated cells: essentially abolished; also recorded: almost completely abolished
[3]
  [Ca^2+]i reached by the subsequent slow climb, without decrease: greater than 450 nM
[4]; [8]
  p44/42 MAPK phosphorylation: increased phosphorylation
[4]; [9]
  p44/42 MAPK phosphorylation: remained elevated; also recorded: persistent phosphorylation
[4]; substance alone, 24 h
  p44/42 MAPK phosphorylation: returned to basal levels
[4]; [10]
  p44/42 MAPK phosphorylation: increased phosphorylation
[5]; [8]
  p38 MAPK phosphorylation: increased phosphorylation
[5]; [9]
  p38 MAPK phosphorylation: remained elevated; also recorded: persistent phosphorylation
[5]; substance alone, 24 h
  p38 MAPK phosphorylation: returned to basal levels
[5]; [10]
  p38 MAPK phosphorylation: increased phosphorylation
[6]; 5 min pretreatment, FIG. 6A
  effect of sAβ pretreatment on thrombin-induced TNF-α release: significantly potentiated
[6]; nM concentrations
  TNF-α release induced by sAβ alone: insufficient to induce significant TNF-α release
[7]; [11]
  effect of sAβ pretreatment on LPS-induced TNF-α release: not
  effect of sAβ pretreatment on glutamate-induced TNF-α release: significantly potentiated
  effect of sAβ pretreatment on thrombin-induced TNF-α release: significantly potentiated
[7]; nM concentrations, N9 clonal microglial cultures
  TNF-α release induced by sAβ alone: insufficient to induce significant TNF-α release; also recorded: not significant
[7]; potentiation of thrombin- and glutamate-induced TNF-α release
  maximal EC (ECmax) of sAβ's potentiation: 500 nM
[7]; sAβ given 10 min after thrombin or glutamate
  enhancement of TNF-α release when sAβ is given after thrombin or glutamate (post-treatment): not observed
